Measurements published in US9056111B1, “Selective efflux inhibitors and related pharmaceutical compositions and methods of treatment” (STC.UNM, priority 2011, dated 2015).
Where two headings read alike, the source gives them in different places.

Assays:
ABCB1 = ABCB1 (Homo sapiens, UniProt P08183); assay: JC-1 efflux inhibition dose response, flow cytometry, Jurkat-DNR cells; conditions: Jurkat-DNR cells over-expressing ABCB1, averages of two to four replicates
Description: (§1) The HyperCyt® high throughput flow cytometry platform (IntelliCyt™, Albuquerque, N. Mex.) was used to sequentially sample cells from 384-well microplates (2 μL/sample) for flow cytometer presentation at a rate of 40 samples per minute.^62-63 Flow cytometric analysis was performed on a CyAn™ flow cytometer (Beckman-Coulter, Fullerton, Calif.). The resulting time-gated data files were analyzed with HyperView® software to determine compound activity in each well. Inhibition response curves were fitted by Prism® software (GraphPad Software, Inc., San Diego, Calif.) using nonlinear least-squares regression in a sigmoidal dose response model with variable slope, also known as the four-parameter logistic equation. This type of time-gated flow cytometric data analysis was described in detail for a previous ABC transporter screen from our group.^56
The assay provider's ABCB1 over-expressing Jurkat-DNR cell line is used for confirmatory follow up instead of the CCRF-Adr cells. Each cell line (Jurkat-DNR and Ig-MXP3) is run separately against all compounds (no differential cell staining) in dose response. The assay is conducted in 384-well format in a total volume of 15.1 μL. Cells and reagents are added sequentially as follows: 1) PBS buffer (5 μL/well); 2) test compound (100 nL/well); 3) drug-resistant cells (10 μL/well) pre-stained with the JC-1 substrate at 1 μM. Final in-well concentrations of test compound range from 50 μM to 69 nM over an 18 point dose response and the cell concentration is 1×10^6 cells/mL. Nicardipine (50 μM) is added to each plate as a pan-inhibition positive control. The plate is rotated end-over-end at 4 RPM and 25° C. for 30 minutes and then cell samples are analyzed and flow cytometric data of light scatter and fluorescence emission at 530+/−20 nm (488 nm excitation, FL1) are collected.
(§2) Each cell line (Jurkat-DNR and Ig-MXP3) was run separately against all compounds (no differential cell staining) in dose-response. The protocol differed from the single point screen as describe here. Cells and reagents were added sequentially as follows: 1) PBS buffer (5 μL per well); 2) test compound (100 nL per well); 3) drug-resistant cells (10 μL, per well) pre-exposed to the JC-1 substrate at 1 μM just prior to the well addition. Final in-well concentrations of test compound ranged from 50 μM to 69 nM over an 18 point dose-response and the cell concentration was 1×10^6 cells mL^−1.

ABCB1 / ABCG2 = molecular target: T1, ABCB1 / ABCG2 (Homo sapiens, UniProt Q9UNQ0); assay: JC-1 efflux inhibition dose response, flow cytometry, Ig-MXP3 cells; conditions: human, probe JC-1 (1 µM), ~Fold G2 Selective (B1/G2), quotient of average ABCB1 IC50 and average ABCG2 IC50, efflux assay
T1 sequence (Q9UNQ0 1-655): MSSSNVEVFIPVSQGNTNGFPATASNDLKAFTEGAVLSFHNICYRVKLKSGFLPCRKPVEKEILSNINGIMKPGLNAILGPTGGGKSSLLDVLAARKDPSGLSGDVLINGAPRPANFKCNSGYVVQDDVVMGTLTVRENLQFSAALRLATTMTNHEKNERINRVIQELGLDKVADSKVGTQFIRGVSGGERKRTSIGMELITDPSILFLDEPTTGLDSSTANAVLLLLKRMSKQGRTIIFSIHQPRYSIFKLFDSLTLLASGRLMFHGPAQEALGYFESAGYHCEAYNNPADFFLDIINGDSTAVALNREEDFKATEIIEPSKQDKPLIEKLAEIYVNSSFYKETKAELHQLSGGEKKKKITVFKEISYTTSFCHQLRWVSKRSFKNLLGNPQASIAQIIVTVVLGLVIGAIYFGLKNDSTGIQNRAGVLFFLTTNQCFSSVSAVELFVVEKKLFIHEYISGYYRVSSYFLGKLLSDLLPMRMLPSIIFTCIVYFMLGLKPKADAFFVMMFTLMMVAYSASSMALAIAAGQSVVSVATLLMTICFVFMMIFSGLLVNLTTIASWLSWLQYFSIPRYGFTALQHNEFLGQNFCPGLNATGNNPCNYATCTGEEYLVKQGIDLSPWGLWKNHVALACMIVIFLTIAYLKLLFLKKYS
Description: as §1
(§3) The assay provider's ABCB1 over-expressing Jurkat-DNR cell line is used for confirmatory follow up instead of the CCRF-Adr cells. Each cell line (Jurkat-DNR and Ig-MXP3) is run separately against all compounds (no differential cell staining) in dose response. The assay is conducted in 384-well format in a total volume of 15.1 μL. Cells and reagents are added sequentially as follows: 1) PBS buffer (5 μL/well); 2) test compound (100 nL/well); 3) drug-resistant cells (10 μL/well) pre-stained with the JC-1 substrate at 1 μM. […] Nicardipine (50 μM) is added to each plate as a pan-inhibition positive control.
as §2, with “addition.” for “addition. Final in-well concentrations of test compound ranged from 50 μM to 69 nM over an 18 point dose-response and the cell concentration was 1×10^6 cells mL^−1.”

ABCG2 = molecular target: T2, ABCG2 (Homo sapiens, UniProt Q9UNQ0); assay: as above
T2 sequence (Q9UNQ0 1-655): T1 sequence (Q9UNQ0 1-655)
Description: as §1, §3
as §2, with “addition.” for “addition. Final in-well concentrations of test compound ranged from 50 μM to 69 nM over an 18 point dose-response and the cell concentration was 1×10^6 cells mL^−1.”

[1] = system: ABCB1 over-expressing Jurkat-DNR cells; assay: Chemoreversal assay: potentiation of daunorubicin (DNR) killing; format: cell-based; conditions: constant 100 nM DNR, varied inhibitor dose, read-out: CR50 ABCB1
[2] = system: ABCG2 over-expressing Ig-MXP3 cells; assay: Chemoreversal assay: potentiation of mitoxantrone (MTX) killing; format: cell-based; conditions: Ig-MXP3 cells, constant 30 nM MTX, varied inhibitor dose; read-out: CR50 ABCG2
Jurkat-DNR cells = assay: Direct cytotoxicity (Toxic Dose 50) without chemotherapeutic
Description: Cells (ABCB1, Jurkat-DNR or ABCG2 Ig-MXP3) are incubated with the test compound (3 order of magnitude concentration range) over a 3-day and 7-day period in the presence of the inhibitor and chemotherapeutic (ABCB1, DNR or ABCG2 MTX), such that a cell concentration of at least 1×10^5 cells/mL is maintained. Cell viability is determined by trypan blue staining and enumeration under light microscopy. […] A chemoreversal index (Chemoreversal 50, CR50) is determined from the viability assessment. Using a similar approach, a direct cytotoxicity index (Toxic Dose 50, TD50) is determined by assessment of cell death of cells grown in media alone.
Cells (ABCB1, Jurkat-DNR or ABCG2 Ig-MXP3) were incubated with the test compound in a 3 order of magnitude concentration range over three and seven day periods in the presence of the inhibitor and chemotherapeutic (ABCB1, 100 nM DNR or ABCG2 30 nM MTX), such that a cell concentration of at least 1×10^5 cells mL^−1 was maintained. Cell viability was determined by trypan blue staining and enumeration under light microscopy. […] A chemoreversal index (Chemoreversal 50, CR50) was determined from the viability assessment. Using a similar approach, a direct cytotoxicity index (Toxic Dose 50, TD50) was determined by assessment of cell death of cells grown in media alone.

Ig-MXP3 cells = assay: as above; format: cell-based
[3] = IC50 ABCB1 (efflux inhibition of JC-1 substrate)
[4] = Jurkat-DNR cells, inhibitor without chemotherapeutic
[5] = Ig-MXP3 cells, inhibitor without chemotherapeutic

Sequence of ABCB1 (P08183 whole entry): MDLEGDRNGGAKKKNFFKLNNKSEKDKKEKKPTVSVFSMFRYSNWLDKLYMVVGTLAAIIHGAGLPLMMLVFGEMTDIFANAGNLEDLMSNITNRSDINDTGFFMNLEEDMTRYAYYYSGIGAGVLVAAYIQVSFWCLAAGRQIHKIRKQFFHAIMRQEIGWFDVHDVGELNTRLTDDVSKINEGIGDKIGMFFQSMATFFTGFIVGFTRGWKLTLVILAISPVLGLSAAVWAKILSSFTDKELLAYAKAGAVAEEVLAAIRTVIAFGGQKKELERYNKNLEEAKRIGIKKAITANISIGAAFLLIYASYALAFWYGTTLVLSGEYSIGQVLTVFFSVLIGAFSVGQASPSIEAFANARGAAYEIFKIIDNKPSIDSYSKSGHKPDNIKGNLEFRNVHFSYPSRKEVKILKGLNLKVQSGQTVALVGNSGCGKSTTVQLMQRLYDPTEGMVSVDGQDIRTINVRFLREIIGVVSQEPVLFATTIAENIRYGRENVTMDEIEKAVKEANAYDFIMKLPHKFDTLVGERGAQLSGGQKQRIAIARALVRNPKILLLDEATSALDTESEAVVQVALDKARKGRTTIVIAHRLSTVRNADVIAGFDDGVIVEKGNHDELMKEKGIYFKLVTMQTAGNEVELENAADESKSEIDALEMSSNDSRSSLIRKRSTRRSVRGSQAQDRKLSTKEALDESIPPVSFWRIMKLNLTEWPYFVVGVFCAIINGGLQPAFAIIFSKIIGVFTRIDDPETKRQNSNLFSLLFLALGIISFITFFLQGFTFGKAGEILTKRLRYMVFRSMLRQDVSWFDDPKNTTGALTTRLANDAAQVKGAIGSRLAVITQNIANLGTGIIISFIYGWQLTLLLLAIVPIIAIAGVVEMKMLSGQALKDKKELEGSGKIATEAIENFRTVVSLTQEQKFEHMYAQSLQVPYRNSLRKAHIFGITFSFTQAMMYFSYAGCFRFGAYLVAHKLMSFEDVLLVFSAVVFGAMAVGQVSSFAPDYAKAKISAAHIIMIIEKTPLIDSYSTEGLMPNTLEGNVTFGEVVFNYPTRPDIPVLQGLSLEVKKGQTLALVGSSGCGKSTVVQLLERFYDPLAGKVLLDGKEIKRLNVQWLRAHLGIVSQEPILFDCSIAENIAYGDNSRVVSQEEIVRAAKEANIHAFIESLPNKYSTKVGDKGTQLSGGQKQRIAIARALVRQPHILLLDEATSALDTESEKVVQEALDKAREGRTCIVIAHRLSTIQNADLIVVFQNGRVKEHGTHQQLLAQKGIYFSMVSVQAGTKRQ

Q: `COc1cccc(C(=O)N2CCN(c3cc(-c4ccccc4)nc4cc(-c5cccc(Cl)c5)nn34)CC2)c1` [Compound 15] was tested. Which IC50 (ABCB1; [3]) did it give?
A: The IC50 was 2640 ± 640 nM.

Q: And the selectivity ratio at 30 min (ABCB1 / ABCG2)?
A: The selectivity ratio at 30 min was 0.6.

Q: What about the IC50 (ABCG2) of the same compound?
A: The IC50 was 4450 ± 4680 nM.

Q: And the EC50 [1]?
A: Its EC50 is 350 nM.

Q: And the EC50 [2]?
A: Its EC50 is 210 nM.

Q: What about the “TD50 ABCB1” value (Jurkat-DNR cells; [4]) of the same compound?
A: The value was over 100 µM.

Q: What about the “TD50 ABCG2” value (Ig-MXP3 cells; [5]) of the same compound?
A: The value was over 100 µM.

Q: Which IC50 (ABCB1; [3]) does the source give for `O=C(c1cccnc1)N1CCN(c2cc(-c3ccccc3)nc3cc(-c4cccc(Cl)c4)nn23)CC1` [Compound 20] here?
A: Its IC50 is 570 ± 80 nM.

Q: What about the selectivity ratio at 30 min (ABCB1 / ABCG2) of the same compound?
A: Its selectivity ratio at 30 min is 2.5.

Q: What about the IC50 (ABCG2) of the same compound?
A: Its IC50 is 230 ± 150 nM.

Q: And the EC50 [1]?
A: Its EC50 is 170 nM.

Q: What about the EC50 [2] of the same compound?
A: Its EC50 is 130 nM.

Q: What about the “TD50 ABCB1” value (Jurkat-DNR cells; [4]) of the same compound?
A: The value was 4.72 µM.

Q: And the “TD50 ABCG2” value (Ig-MXP3 cells; [5])?
A: The value was 10.30 µM.

Q: Which IC50 (ABCB1; [3]) does the source give for `O=C(c1ccncc1)N1CCN(c2cc(-c3ccccc3)nc3cc(-c4cccc(Cl)c4)nn23)CC1` [Compound 21] here?
A: Its IC50 is 1160 ± 300 nM.

Q: And the selectivity ratio at 30 min (ABCB1 / ABCG2)?
A: Its selectivity ratio at 30 min is 1.1.

Q: And the IC50 (ABCG2)?
A: Its IC50 is 1030 ± 230 nM.

Q: And the EC50 [1]?
A: The EC50 was 250 nM.

Q: What about the EC50 [2] of the same compound?
A: Its EC50 is 150 nM.

Q: What about the “TD50 ABCB1” value (Jurkat-DNR cells; [4]) of the same compound?
A: Its value is 10.90 µM.

Q: And the “TD50 ABCG2” value (Ig-MXP3 cells; [5])?
A: Its value is 28.30 µM.

Q: With `O=C(Cc1ccccc1)N1CCN(c2cc(-c3ccccc3)nc3cc(-c4cccc(Cl)c4)nn23)CC1` [Compound 24] as the compound, how does the IC50 (ABCB1; [3]) read?
A: The IC50 was 4680 ± 2690 nM.

Q: What about the selectivity ratio at 30 min (ABCB1 / ABCG2) of the same compound?
A: Its selectivity ratio at 30 min is 0.8.

Q: And the IC50 (ABCG2)?
A: Its IC50 is 5760 ± 3400 nM.

Q: And the EC50 [1]?
A: Its EC50 is 510 nM.

Q: What about the EC50 [2] of the same compound?
A: The EC50 was 600 nM.

Q: And the “TD50 ABCB1” value (Jurkat-DNR cells; [4])?
A: Its value is 17.80 µM.

Q: And the “TD50 ABCG2” value (Ig-MXP3 cells; [5])?
A: Its value is over 100 µM.

Q: For `O=C(c1ccoc1)N1CCN(c2cc(-c3cccnc3)nc3cc(-c4cccc(Cl)c4)nn23)CC1` [Compound 30], which IC50 (ABCB1; [3]) is on record?
A: The IC50 was 770 ± 280 nM.

Q: What about the selectivity ratio at 30 min (ABCB1 / ABCG2) of the same compound?
A: Its selectivity ratio at 30 min is 2.9.

Q: What about the IC50 (ABCG2) of the same compound?
A: Its IC50 is 270 ± 120 nM.

Q: And the EC50 [1]?
A: The EC50 was 200 nM.

Q: What about the EC50 [2] of the same compound?
A: The EC50 was 20 nM.

Q: And the “TD50 ABCB1” value (Jurkat-DNR cells; [4])?
A: The value was 5.33 µM.

Q: What about the “TD50 ABCG2” value (Ig-MXP3 cells; [5]) of the same compound?
A: The value was 5.77 µM.

Q: How did the IC50 (ABCB1; read-out: IC50 ABCB1 (efflux inhibition of JC-1 substrate)) turn out when `COc1cccc(-c2cc3nc(-c4ccco4)cc(N4CCN(C(=O)c5ccoc5)CC4)n3n2)c1` [Compound 56] was run?
A: Its IC50 is 7400 nM.

Q: And the “~Fold G2 Selective (B1/G2)” value (ABCG2; quotient of average ABCB1 IC50 and average ABCG2 IC50, efflux assay)?
A: The value was 3.3 fold.

Q: What about the IC50 (ABCG2; read-out: IC50 ABCG2 (efflux inhibition of JC-1 substrate), Ig-MXP3 cells over-expressing ABCG2, averages of two to four replicates) of the same compound?
A: The IC50 was 2260 nM.

Q: What about the EC50 [1] of the same compound?
A: Its EC50 is 470 nM.

Q: What about the EC50 [2] of the same compound?
A: The EC50 was 1000 nM.

Q: What about the “TD50 ABCB1” value (Jurkat-DNR cells) of the same compound?
A: Its value is 5.52 µM.

Q: What about the “TD50 ABCG2” value (Ig-MXP3 cells) of the same compound?
A: The value was over 100 µM.
